The results in this text go back to patent US8138188B2, “Melanocortin type 4 receptor agonist piperidinoylpyrrolidines” (Pfizer Inc., priority 2006, dated 2012).

In one series the target is T1, human MC3 receptor (Homo sapiens, UniProt P41968).
T1 construct: stably transfected with full length cDNA encoding human MC1 or MC3 receptors; expressed in transfected cells; host or cells: Chinese hamster ovary cell line (MC3; 'respectively')
Kind of series: In vitro agonist potency (EC50) against melanocortin receptor type 3, cAMP in recombinant cell line. Format: cell-based. As to conditions: cell line stably transfected with human MC3, 1 hour at 37° C. As for the experimental part:
Measurement of In Vitro Agonist Potency (EC50) of Compounds Against Melanocortin Receptors Type 1 and 3 (MC1 and MC3).
Activation of melanocortin (MC) receptors by agonists results in activation of intracellular adenylate cyclase enzymes that synthesise the second messenger signalling molecule, adenosine 3′,5′-cyclic monophosphate (cAMP). Changes in cAMP levels following treatment of recombinant MC1 and MC3 cell lines with test compound were measured and an MC1 and MC3 potency estimate (EC50) calculated as follows: […]
Human embryonic kidney (HEK) or Chinese hamster ovary cell lines stably transfected with full length cDNA encoding human MC1 or MC3 receptors, respectively, were established using standard molecular biology methods. Test compounds were dissolved in dimethyl sulfoxide (DMSO) at 4 mM. 11 point half log unit increment dilution series of test compound, typically starting at 50 uM were prepared in a buffer comprised of phosphate buffered saline (PBS), 2.5% DMSO and 0.05% pluronic F-127 surfactant. Freshly cultured cells at 80-90% confluence were harvested and re-suspended in Dulbecco's Modified Eagle's Medium (DMEM). Cells (10,000 for MC3, 20,000 for MC1) were added to the test compound dilution series in a 384 well assay plate and incubated for 1 hour at 37° C. The relative cAMP concentration in each well was then measured using a β-galactosidase enzyme fragment complementation method purchased in kit form as the Discoverx cAMP II kit from GE Healthcare/Amersham Biosciences UK. In the case of MC1,3-Isobutyl-1-methylxanthine (IBMX) at a concentration of 750 μM was included in DMEM as the cells were re-suspended for assay. […] Sigmoidal curves were fitted to plots of log10 inhibitor concentration vs percent effect using a custom made software application called SIGHTS and EC50 estimates determined by the software as the concentration of test compound giving an effect half way between the bottom and top assymptopes of the sigmoidal dose response curve. Each experiment included an EC50 determination for alpha melanocyte stimulating hormone, which was used as a standard to track assay consistency and allow fair comparison between EC50 estimates obtained in different experiments.

The nature of series [1]: In vitro metabolism rate determination, human liver microsome (HLM) assay. The series is classed as in vitro ADME. Particulars: human liver microsomes, substrate 1 μM; read-out: HLM (intrinsic clearance). The source says:
In vitro Metabolism Rate Determination (Human Liver Microsome (HLM); Rat Liver Microsome (RLM) Assay)
Many drugs are metabolised by the cytochrome P450 mono-oxygenase system. This enzyme is found in high concentrations in the liver and is bound to the endoplasmic reticulum of the hepatocyte. The enzyme system can be obtained in semi-purified state by the preparation of the hepatic microsomal fractions. Determining a compound's in vitro half-life in such a system provides a useful indicator of metabolic stability.
Methodology For In Vitro Rate Determination Using Hepatic & Supermix Microsomes
The method outlined below is for a total incubation volume of 1.5 ml.
1. The following mixture is prepared in a test tube:
2. Defrost microsomes at room temperature and add sufficient microsomes to give a final concentration of 0.5 nmol cytochrome P450/ml of incubation e.g. for a 1.5 ml incubation, the volume of microsomes to be added is:
[formula] 3. Add sufficient MilliQ water to give a total incubation volume of 1.425 ml. 4. Remove 237.5 μl of incubation mix and place in test tube for PNA positive control. Add 2.5 μl of PNA solution, whirlimix, and put tube into a rack in the thermostatically controlled shaking water bath 5. Remove 100 μl for no substrate control and dispense in test tube. Place test tube in a rack in the thermostatically controlled shaking water bath. 6. Add substrate to the incubation. The substrate should be at an initial concentration of 1 μM. The volume of substrate required in the remaining 1.162.5 ml incubation is calculated as follows:
[formula] • N.B. The volume of organic solvent added should not exceed 0.1% of the total incubation volume. 7. Remove 100 μl of incubation mix into test tube for no cofactor control. Whirlimix and put into a rack in the thermostatically controlled shaking water bath. 8. Pre-incubate the tube containing the incubation mix, also positive control and no cofactor tubes in the thermostatically controlled shaking water bath set at 37° C. for approx 5 min. 9. Add NADP to initiate reaction (75 μl to each 1.162.5 ml incubation mix, 12.5 μl to positive control tube and 5 μl to no substrate tube) and take first time point immediately. The PNA positive control, no cofactor control and no substrate tubes are incubated for the total incubation time. 10. Remove 100 μl aliquots up to 9 different sampling points from 0 to 60 min (usually 0, 3, 5, 10, 15, 20, 30, 45 & 60 min) and terminate reaction. Longer incubation times can be used, but, after 120 min the microsomes deteriorate. The reaction may be terminated by addition of organic solvent, acid or base. At the end of the incubation process the no cofactor and no substrate controls in a similar manner i.e. terminate with the same reagent. 11. PNA Positive Control Procedure: • After the final sample has been taken, remove the positive control and add 1 ml 20% TCA to this tube. Also prepare a tube containing 250 μl of a PNP standard at 50 μM, and add 1 ml 20% TCA. Whirlimix both tubes and leave for approx 5 min to allow the protein to precipitate. • Centrifuge both tubes for approx 5 min in an instrument set at 3500 rpm. Remove 1 ml of supernatant and place into clean test tubes, discard the remainder. • Add 1 ml 10M NaOH to the supernatant, whirlimix, and leave to stand for approx min. Blank spectrophotometer with distilled water at 400 nm then measure absorbance of the PNP standard against distilled water. The microsomal 4-nitroanisole O-demethylase activity is calculated as follows: Calculation of Results
[formula] • The activity value from the incubation MUST be equal to or greater than 85% of the mean value of the batch used for the incubation to be valid. If this criteria is not met, then the incubation must be repeated. 11. Analyse samples (including no cofactor and no substrate control) by a specific assay for the substrate to determine the disappearance kinetics. Analysis Of Data […]
On the technique in general: Liver microsomes are a subcellular fraction often used to study metabolism.

T1 sequence (P41968 whole entry): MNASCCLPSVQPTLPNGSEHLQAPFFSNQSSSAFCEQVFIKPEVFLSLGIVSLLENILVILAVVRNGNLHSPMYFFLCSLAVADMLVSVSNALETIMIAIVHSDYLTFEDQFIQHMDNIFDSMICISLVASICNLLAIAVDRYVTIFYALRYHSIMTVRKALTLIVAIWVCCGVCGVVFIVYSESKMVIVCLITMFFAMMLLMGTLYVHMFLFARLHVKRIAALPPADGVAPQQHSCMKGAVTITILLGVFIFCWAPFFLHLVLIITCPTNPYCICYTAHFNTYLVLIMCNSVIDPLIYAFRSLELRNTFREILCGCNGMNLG

In the case of `C[C@@H]1CN(C(=O)[C@@H]2CN(c3ccc(C#N)cn3)C[C@H]2c2ccc(Cl)cn2)C[C@H](C)[C@@]1(O)c1ccc(F)cc1` [Example 1, 6-[(3S,4S)-3-(5-Chloropyridin-2-yl)-4-{[(3R,4R,5S)-4-(4-fluorophenyl)-4-hydroxy-3,5-dimethylpiperidin-1-yl]carbonyl}pyrrolidin-1-yl]nicotinonitrile], the EC50 (commonly the concentration giving half of the maximal effect) on human MC3 receptor was determined as 43.9 nM. In addition, the microsomal CLint at 1 μM in series [1] is < 7 µL/min/mg.

Turning to `C[C@@H]1CN(C(=O)[C@@H]2CN(c3ccc(C#N)nn3)C[C@H]2c2ccc(Cl)cn2)C[C@H](C)[C@@]1(O)c1ccc(F)cc1` [Example 2, 6-[(3S,4S)-3-(5-Chloropyridin-2-yl)-4-{[(3R,4R,5S)-4-(4-fluorophenyl)-4-hydroxy-3,5-dimethylpiperidin-1-yl]carbonyl}pyrrolidin-1-yl]pyridazine-3-carbonitrile], the EC50 on human MC3 receptor was determined as 4.26 nM. Also, the microsomal CLint at 1 μM in series [1] was < 12 µL/min/mg.

With `COc1ccc(N2C[C@@H](C(=O)N3C[C@@H](C)[C@](O)(c4ccc(F)cc4)[C@@H](C)C3)[C@H](c3ccc(Cl)cn3)C2)nn1` [Example 4, (3R,4R,5S)-1-{[(3S,4S)-4-(5-chloropyridin-2-yl)-1-(6-methoxypyridazin-3-yl)pyrrolidin-3-yl]carbonyl}-4-(4-fluorophenyl)-3,5-dimethylpiperidin-4-ol], the EC50 on human MC3 receptor amounted to 55.9 nM. Also, in series [1], the microsomal CLint at 1 μM stood at 60 µL/min/mg.

In the case of `C[C@@H]1CN(C(=O)[C@@H]2CN(c3ccc(Cl)nn3)C[C@H]2c2ccc(F)cn2)C[C@H](C)[C@@]1(O)c1ccc(Cl)cc1` [Example 5, (3R,4R,5S)-4-(4-chlorophenyl)-1-{[(3S,4S)-1-(6-chloropyridazin-3-yl)-4-(5-fluoropyridin-2-yl)pyrrolidin-3-yl]carbonyl}-3,5-dimethylpiperidin-4-ol], the EC50 at human MC3 receptor stood at 203 nM. Further, the microsomal CLint at 1 μM in series [1] is < 7 µL/min/mg.

In the case of `C[C@@H]1CN(C(=O)[C@@H]2CN(c3ccc(=O)[nH]n3)C[C@H]2c2ccc(F)cn2)C[C@H](C)[C@@]1(O)c1ccc(Cl)cc1` [Example 6, 6-[(3S,4S)-3-{[(3R,4R,5S)-4-(4-chlorophenyl)-4-hydroxy-3,5-dimethylpiperidin-1-yl]carbonyl}-4-(5-fluoropyridin-2-yl)pyrrolidin-1-yl]pyridazin-3(2H)-one], the EC50 on human MC3 receptor worked out at 1460 nM.

Consider `C[C@@H]1CN(C(=O)[C@@H]2CN(c3ccc(=O)n(C)n3)C[C@H]2c2ccc(F)cn2)C[C@H](C)[C@@]1(O)c1ccc(Cl)cc1` [Example 7, 6-[(3S,4S)-3-{[(3R,4R,5S)-4-(4-chlorophenyl)-4-hydroxy-3,5-dimethylpiperidin-1-yl]carbonyl}-4-(5-fluoropyridin-2-yl)pyrrolidin-1-yl]-2-methylpyridazin-3(2H)-one], for which the EC50 at human MC3 receptor was found to be 1600 nM. The microsomal CLint at 1 μM in series [1] was 21 µL/min/mg.

On to `C[C@@H]1CN(C(=O)[C@@H]2CN(c3cncc(F)c3)C[C@H]2c2ccc(Cl)cn2)C[C@H](C)[C@@]1(O)c1ccccn1` [Example 8, (3R,4R,5S)-1-{[(3S,4S)-4-(5-chloropyridin-2-yl)-1-(5-fluoropyridin-3-yl)pyrrolidin-3-yl]carbonyl}-3,5-dimethyl-4-pyridin-2-ylpiperidin-4-ol], for which the EC50 at human MC3 receptor came to 1090 nM. Also, the microsomal CLint at 1 μM in series [1] is > 440 µL/min/mg.

As to `C[C@@H]1CN(C(=O)[C@@H]2CN(c3cccnn3)C[C@H]2c2ccc(Cl)cn2)C[C@H](C)[C@@]1(O)c1ccccn1` [Example 9, (3R,4R,5S)-1-{[(3S,4S)-4-(5-chloropyridin-2-yl)-1-pyridazin-3-ylpyrrolidin-3-yl]carbonyl}-3,5-dimethyl-4-pyridin-2-ylpiperidin-4-ol], on human MC3 receptor, the EC50 was 520 nM. Besides, in series [1], the microsomal CLint at 1 μM stood at 240 µL/min/mg.

Take `C[C@@H]1CN(C(=O)[C@@H]2CN(c3ccc(=O)n(C)n3)C[C@H]2c2ccc(Cl)cn2)C[C@H](C)[C@@]1(O)c1ccc(Cl)cn1` [Example 10]: on human MC3 receptor, the EC50 is 493 nM. Further, in series [1], the microsomal CLint at 1 μM is 20.5 µL/min/mg.

On to `COc1ccc(C2CN(c3ccc(C#N)nn3)CC2C(=O)N2CC(C)C(O)(c3ccc(F)cc3)C(C)C2)cn1` (stereo not shown) [Example 16], for which the EC50 on human MC3 receptor is 323 nM. Also, the microsomal CLint at 1 μM in series [1] was < 45.5 µL/min/mg.

For the compound `C[C@@H]1CN(C(=O)[C@@H]2CN(c3ccc(=O)n(C)n3)C[C@H]2c2ccc(Cl)cn2)C[C@H](C)[C@@]1(O)C1CCCCC1` [Example 17], on human MC3 receptor, the EC50 stood at 54.9 nM. In addition, the microsomal CLint at 1 μM in series [1] is > 440 µL/min/mg.

Consider `C[C@@H]1CN(C(=O)[C@@H]2CN(c3ccc(=O)n(C)n3)C[C@H]2c2ccc(Cl)cn2)C[C@H](C)[C@@]1(O)C1CC1` [Example 18], for which, on human MC3 receptor, the EC50 is > 8520 nM. For the same compound, in series [1], the microsomal CLint at 1 μM amounted to 67 µL/min/mg.

On to `CC1CN(C(=O)C2CN(c3ccc(=O)n(C)n3)CC2c2ccc(Cl)cn2)CC(C)C1(O)c1ccc(F)c(F)c1` (stereo not shown) [Example 19], for which the EC50 on human MC3 receptor was determined as 425 nM. The microsomal CLint at 1 μM in series [1] was found to be 21 µL/min/mg.

For the compound `COc1ccc(C2(O)C(C)CN(C(=O)C3CN(c4ccc(=O)n(C)n4)CC3c3ccc(Cl)cn3)CC2C)cc1` (stereo not shown) [Example 20], the EC50 on human MC3 receptor was 1120 nM. For the same compound, in series [1], the microsomal CLint at 1 μM is 31 µL/min/mg.

In the case of `CC1CN(C(=O)C2CN(c3ccc(=O)n(C)n3)CC2c2ccc(Cl)cn2)CC(C)C1(O)c1ccccc1` (stereo not shown) [Example 21], on human MC3 receptor, the EC50 worked out at 283 nM. Besides, the microsomal CLint at 1 μM in series [1] turned out to be 144 µL/min/mg.

As for `C[C@@H]1CN(C(=O)[C@@H]2CN(c3ccc(=O)n(C)n3)C[C@H]2c2ccc(Cl)cn2)C[C@H](C)[C@@]1(O)c1ccccn1` [Example 22], on human MC3 receptor, the EC50 was 1050 nM. Moreover, the microsomal CLint at 1 μM in series [1] was 179 µL/min/mg.

Take `CC1CN(C(=O)C2CN(c3ccc(=O)n(C)n3)CC2c2ccc(Cl)cn2)CC(C)C1(O)c1ccc(Cl)cc1` (stereo not shown) [Example 23]: the EC50 at human MC3 receptor stood at 185 nM. Also, the microsomal CLint at 1 μM in series [1] was < 15.5 µL/min/mg.

On to `CC1CN(C(=O)C2CN(c3cncc(F)c3)CC2c2ccc(Cl)cn2)CC(C)C1(O)C1CC1` (stereo not shown) [Example 24], for which the EC50 on human MC3 receptor amounted to 2510 nM. For the same compound, the microsomal CLint at 1 μM in series [1] amounted to 355 µL/min/mg.

For the compound `CC1CN(C(=O)C2CN(c3cncc(F)c3)CC2c2ccc(Cl)cn2)CC(C)C1(O)c1ccc(F)cc1` (stereo not shown) [Example 25], the EC50 on human MC3 receptor came out at 189 nM. For the same compound, the microsomal CLint at 1 μM in series [1] was found to be 308 µL/min/mg.
